# Experimental data taken from patent US20140243401A1, “METHODS OF SCREENING COMPOUNDS THAT ARE CYTOTOXIC TO TUMOR CELLS AND METHODS OF TREATING TUMOR CELLS USING SUCH COMPOUND” (The Johns Hopkins University, priority 2010, published 2014).
# What was measured:
# [1] = system: SKOV3 human ovarian cancer xenograft; assay: tumor xenograft size, SKOV3; assay type: in vivo, Athymic Nude mice
# Method: Xenograft studies were performed using various mmFAS inhibitors disclosed herein. Human cancer xenograft studies are known in the art. (See Pizer et al., Cancer Res. 56:1189-1193, 1996; Pizer et al., Cancer Res. 60: 213-218, 2000; Testa et al., Oncogene 24: 7455-7464, 2005).
# In particular, C31 mouse efficacy studies were conducted in order to evaluate anti-neoplastic activity of C31 in vivo. Athymic Nude mice were implanted with HCT116 human colon, SKOV3 human ovarian or OVCAR3 human ovarian cancer cell lines and were treated when the grown tumor xenografts reached at least 150 to 200 mm^3.^1 ^1 Compounds were solubilized in TEP (80% polyethylene glycol (PEG) 400, 10% ethanol, 10% tween-80) in a volume of 50 μL.
# MCF7 cells [2] = assay: JC-1 staining, mitochondrial membrane potential in MCF7 cells; assay type: cell-based, human
# Source text: JC-1 staining is an indicator of mitochondrial membrane potential; with this assay, mitochondria within cells stained with this fluorescent dye emit a wavelength in the red spectrum when mitochondrial membrane potential is intact. When mitochondria are depolarized, the wavelength of the spectrum emitted changes to green. Therefore, the ratio of red/green fluorescence will give an indication of the intactness of the membrane potential of mitochondria, and thus mitochondrial function.
# MCF7 cells were cultured in 24-well plates at 1×10^4 per well and incubated overnight. Following drug inhibition the medium was removed and 1 μg/ml JC-1 (Molecular Probes) in DPBS was added to the cells. Plates were incubated for 30 min at 37° C., and washed two times with DPBS. Fluorescence from each well was measured at 530 nm/590 nm (excitation/emission) and by 485 nm/535 nm (excitation/emission) separately using PerkinElmer Victor 1420. The ratio of red to green fluorescence is a measure of mitochondrial membrane potential and thus mitochondrial function directly.
# Mitochondrial membrane polarization was monitored using the procedure described above. Cells were cultured in 24-well plates at 1×10^4 per well and incubated overnight. […] Fluorescence from each well was measured at 530 nm/590 nm (excitation/emission) and by 485 nm/535 nm (excitation/emission) separately using PerkinElmer Victor 1420.
# MCF7 cells [3] = assay: cellular ATP level, bioluminescence; assay type: cell-based, human
# Method: As mitochondria serve as the energy production center of the cell, their main purpose is the generation of ATP. As a functional readout, cellular ATP levels may be measured to obtain an indication of mitochondrial status upon compound treatment. MCF-7 cells were cultured the standard medium, and ATP levels were measured by chemiluminescence.
# MCF7 human breast cancer cells cultured in DMEM containing 5 mM glucose medium with 10% fetal calf serum, 0.01 mg/ml insulin and 1% penicillin/streptomycin. Cells were plated in 24-well cell culture plates at 2×10^5 per well overnight. After drug treatment, cells were lysed using 500 μl of TE buffer (4 mM Tris, 0.25 mM EDTA, pH 7.4) and boiled at 95° C. for 7 min. ATP levels were measured within the linear range using the ATP BioLuminescence Kit CLSII (Roche) by following the manufacture's recommendation. Luminescence was detected using PerkinElmer Victor 1420.
# Determination of the effect on cellular ATP level was carried out using the procedure described above. Cells were plated in 24 well cell culture plates at 2×10^5 per well overnight. Cells were cultured in 1 mM or 5 mM glucose at either 1% or 21% (ambient) oxygen levels. […] ATP levels were measured within the linear range using the ATP Bioluminescence Kit CLSII (Roche) by following the manufacture's recommendation. Luminescence was detected using PerkinElmer Victor 1420.
# [4] = system: Human breast cancer cell lines; assay: XTT cytotoxicity assay, human breast cancer cell lines; assay type: cell-based; details: 5 human breast cancer cell lines, read-out: LC50 (the source's name)
# Method: Cytotoxicity can be easily measured using XTT assays, which provide an indication of mitochondrial activity. The XTT assay is a non-radioactive alternative for the [^51Cr] release cytotoxicity assay. XTT is a tetrazolium salt that is reduced to a formazan dye only by metabolically active, viable cells. The reduction of XTT is measured spectrophotometrically as OD490-OD650. Thus, cells that are actively metabolizing will form reaction product when subjected to XTT measurement.
# For this experiment, cells were cultured under standard culture conditions. MCF7 human breast cancer cells were cultured in DMEM containing 5 mM glucose medium with 10% fetal calf serum, 0.01 mg/ml insulin and 1% penicillin/streptomycin. To measure the cytotoxicity of specific compounds against cancer cells, 9×10^3 MCF7 cells were plated per well in 96-well plates. Following overnight culture, the compounds, dissolved in DMSO, were added to the wells in 1 μl volume at specified concentrations. Vehicle controls were run for each experiment. Each condition was run in triplicate. […] Plates were read at OD490 on a PerkinElmer Victor 1420. […]
# Using the XTT assay, LC50 values for C31 were determined for numerous human cancer cell lines and human hepatocytes, as shown in the following table: […]
smiles,measurement,setting,value
CCCCCCCCC1(C)SC(=O)C=C1OCC(=O)Nc1ccc(Cl)cc1 (stereo not shown) [Compound C31],Average Tumor Size Endpoint (% Change),"[1]; Study 11007, SKOV-3, oral b.i.d. 11 days, 50 mg/kg",−78 % Change
same,Average Tumor Size Endpoint (% Change),"[1]; Study 52307, SKOV-3, oral b.i.d. 15 days, 50 mg/kg",−75 % Change
same,Average Tumor Size Endpoint (% Change),"[1]; Study 121306, SKOV-3, IP b.i.d. 12 days, 10 mg/kg",+179 % Change
same,Average Tumor Size Endpoint (% Change),"[1]; Study 121306, SKOV-3, IP b.i.d. 12 days, 50 mg/kg",−78 % Change
same,Average Tumor Size Endpoint (% Change),"[1]; Study 121306, SKOV-3, IP b.i.d. 12 days, 100 mg/kg",−78 % Change
same,Average Tumor Size Endpoint (% Change),"[1]; Study 3150772607, SKOV-3, IP b.i.d. 10 days, 25 mg/kg",−74 % Change
same,Average Tumor Size Endpoint (% Change),"[1]; Study 3150772607, SKOV-3, IP b.i.d. 10 days, 50 mg/kg",−87 % Change
same,Average Tumor Size Endpoint (% Change),"[1]; Study 3150772607, SKOV-3, IP b.i.d. 10 days, 150 mg/kg",−83 % Change
same,mitochondrial membrane potential (JC-1 staining),"MCF7 cells [2]; MCF7, standard conditions, FIGS. 6, 7",rapid and profound effect on altering mitochondrial membrane potential
same,mitochondrial membrane polarization (JC-1 staining),"MCF7 cells [2]; MCF7, varying glucose and oxygen, FIG. 11",reductions in mitochondrial membrane polarization
same,ATP levels,"MCF7 cells [3]; MCF7, 1 mM or 5 mM glucose, 1% or 21% oxygen, FIG. 10",ATP levels declined in all of the cells
same,ATP levels,"MCF7 cells [3]; MCF7, standard medium 5 mM glucose, FIG. 5",rapidly decreased
same,CC50,[4],3.3 to 16.7 µg/mL
